Reference: patent publication US20250082663A1, “COMPOUNDS AND METHODS FOR TREATING OR […] DOMINANT POLYCYSTIC KIDNEY DISEASE (ADPKD), AUTOSOMAL DOMINANT […] DISEASE (ADPLD) AND/OR AUTOSOMAL RECESSIVE POLYCYSTIC KIDNEY DISEASE (ARPKD)” (YALE UNIVERSITY, priority 2021, published 2025)
pIC50: −log10 of the molar value. Entries after “also recorded” stand apart in the source; their conditions may differ.

Experiments:
[1] = tested on: PKD mice; experiment: PKD mice / preclinical models, model not further specified; assay type: in vivo, mouse
Experimental: FIGS. 22A-22C: Irela inhibitor prevents cyst growth in preclinical models.
FIG. 36: Gene inactivation between P28 and P42. Treatment (0.5 mg/kg; 1×/2 wks) between 6-18 weeks of age.
The basal activity of spliced active XBP1s appears to be a protective survival factor for PC1-null cells that form cysts. […] Thus, specific pharmacological inhibition of the endoribonuclease activity of IRE1α, by inhibiting its ability to splice XBP1 to active XBP1s, should be beneficial in slowing cyst growth in ADPKD. This hypothesis was tested pharmacologically by inhibiting IRE1α endoribonuclease activity using toyocamycin, which is a potent IRE1α endoribonuclease inhibitor.

[2] = tested on: Pkd1^R2216W/flox; Pkhd1-Cre mice; experiment: Neonatal ADPKD model with Pkd1 R2216W missense mutation in trans with floxed allele; assay type: in vivo, mouse
Experimental: Effect of toyocamycin were investigated in a relevant ADPKD model. For this a mouse model was constructed with a human Pkd1 missense mutation (R2216W) in trans with a floxed allele on a Pkhd1-Cre and Pax8-rtTA; tet-OCre background.
(§1) The present study first tested toyocamycin in Pkd1^flox/flox; Pax8rtTA; tet-OCre mice. Animals were given doxycycline water between P28 to P42 then treatment was started from week 6 until week 18 (0.5 mg/kg; once every 2 weeks; 6 i.p. injections). […] The present study recapitulated these findings in another slow progressing adult ADPKD model. A compound mutant model with a floxed Pkd1 allele in trans with a human pathogenic hR2220W (mR2216W) missense mutation that causes defects in PC1 GPS cleavage and trafficking was used. Pkd1^R2216W/flox line was crossed with either Pkhd1-Cre or Pax8rtTA; Tet-OCre to generate neonatal or adult doxycycline inducible lines respectively.

[3] = tested on: cystic cell; experiment: Cystic cell viability (FIGS. 18A-18B); assay type: cell-based
[4] = tested on: nucleotide incorporation; details: up to concentrations of 10 uM; cited from earlier work
[5] = Phase 1 trial; no changes in Hb, WBC, Pt, AP, SGOT and BUN; cited from earlier work
[6] = tested on: Pkd1^R2216W/flox; Pax8rtTA; tet-OCre mice; experiment: Adult ADPKD model with Pkd1 R2216W missense mutation in trans with floxed allele; assay type: in vivo, mouse
Experimental: In order to examine whether this drug leads to disease modifying effects in the adult counterpart of this model, Pkd1^RW/fl; Pax8^rtTA; Tet-OCre mice were generated. In this mice the Cre recombinase is turned on throughout the nephron (except for the PT S3 segment) using a doxycycline inducible system. The mice received doxycycline in the drinking water from P28-P42to induce Cre and inactivate Pkd1 and were then injected with toyocamycin once every 2weeks starting at 6 weeks of age.
as §1
Finally, the present study examined the status of apoptosis in kidneys isolated from Pkd1^R2216W/flox; Pax8rtTA; tet-OCre mice treated with toyocamycin between week 12 to 18 (FIG. 34). […] Finally, the present study set forth to examine whether the effect seen in mice can be recapitulated with a relevant cell line model. Although cell line models for PKD are average mimics of the animal models, they do provide opportunities for a closer look at mechanisms of genotype-phenotype relationships in the context of programmed cell death. The present study used a previously described cell line i.e. PN24; Pkd1^−/−) as the starting point for inactivation of XBP1 via CRISPR/Cas9. At baseline, no differences in cell viability among the 3 genotypes i.e. Pkd1^het, Pkd1^−/−, and Pkd1/XBP1 DKO were observed. The present study then compared the response of Pkd1^+/−, Pkd1^−/−, and Pkd1/XBP1 DKO cells to a sensitized background induced by treatment with 11β-dichloro, an ROS inducer.

[7] = target: Ire1α endoribonuclease activity (Homo sapiens, UniProt O75460); details: cited from earlier work
Ire1α endoribonuclease activity, sequence (O75460 19-977): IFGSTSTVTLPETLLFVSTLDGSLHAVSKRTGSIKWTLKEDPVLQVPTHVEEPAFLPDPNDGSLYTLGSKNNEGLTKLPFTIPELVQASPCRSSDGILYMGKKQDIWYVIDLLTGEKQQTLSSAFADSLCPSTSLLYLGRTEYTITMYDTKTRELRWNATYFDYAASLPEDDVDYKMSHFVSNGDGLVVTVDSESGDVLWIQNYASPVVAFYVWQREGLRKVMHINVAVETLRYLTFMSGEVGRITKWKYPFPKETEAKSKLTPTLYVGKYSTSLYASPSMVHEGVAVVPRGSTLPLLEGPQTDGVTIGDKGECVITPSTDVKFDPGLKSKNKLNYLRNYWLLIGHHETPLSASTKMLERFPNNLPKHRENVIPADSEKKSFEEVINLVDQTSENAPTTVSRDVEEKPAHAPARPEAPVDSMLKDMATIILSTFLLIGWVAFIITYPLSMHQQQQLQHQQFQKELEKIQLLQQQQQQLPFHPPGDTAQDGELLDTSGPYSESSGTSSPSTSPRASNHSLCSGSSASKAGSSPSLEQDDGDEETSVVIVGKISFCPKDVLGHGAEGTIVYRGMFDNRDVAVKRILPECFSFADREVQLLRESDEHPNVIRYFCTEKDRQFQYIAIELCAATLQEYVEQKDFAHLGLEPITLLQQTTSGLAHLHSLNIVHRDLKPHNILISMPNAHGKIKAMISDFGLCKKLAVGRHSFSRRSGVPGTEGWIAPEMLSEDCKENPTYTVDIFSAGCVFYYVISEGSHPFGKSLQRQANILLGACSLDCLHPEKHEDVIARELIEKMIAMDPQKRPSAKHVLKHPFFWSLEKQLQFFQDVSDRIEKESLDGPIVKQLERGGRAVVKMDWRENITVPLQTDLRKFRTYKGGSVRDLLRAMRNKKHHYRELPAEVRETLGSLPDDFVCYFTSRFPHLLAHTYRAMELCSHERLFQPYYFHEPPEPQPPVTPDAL

[8] = target: IRE1α kinase activity (Homo sapiens, UniProt O75460); details: Ri, et al., 2012; cited from earlier work
IRE1α kinase activity, sequence (O75460 19-977): as above

[9] = tested on: Pkd1^flox/flox; Pax8rtTA; tet-OCre mice; experiment: Adult ADPKD model, complete loss of function (doxycycline-induced Pkd1 deletion); assay type: in vivo, mouse; details: for KW/BW ratio: p=0.03
Source text: FIGS. 19A-19B: Ire1α inhibitor improves disease progression in an adult ADPKD model. Adult onset model with complete loss of function (Pkd1fl/fl;Pax8rtTA;tet-OCre). […]
as §1, with “Animals were given doxycycline water between P28 to P42 then treatment was started from week 6 until week 18 (0.5 mg/kg; once every 2 weeks; 6 i.p. injections).” left out

[10] = mouse, in vivo, listed as Irela inhibitor
[11] = treatment from p9 to p16 (once/week), vs vehicle treated animals
[12] = 0.5 mg/kg i.p. once every 2 weeks, between week 6 and 18 (6 doses), p<0.001

## N#Cc1cn([C@@H]2O[C@H](CO)C(O)C2O)c2ncnc(N)c12 (stereo partly drawn) [toyocamycin, 4-Aminopyrrolo[2,3-d]pyrimidine-5-carbonitrile 7-(β-D-ribofuranoside)]
[1]; FIG. 36, 0.5 mg/kg, 1×/2 wks between 6-18 weeks of age
  dependence of the effect on Ire1: depends on the presence of Ire1
[1]; FIGS. 22A-22C
  apoptosis in cyst cells with PC1 mutation: Enhanced apoptosis
  systemic toxicity (body weight): No apparent systemic toxicity
[1]; FIGS. 24A-24B
  collagen deposition: prevents
[1]; mouse, in vivo
  BUN (kidney function): reduction
  kidney to body weight ratio: dramatic reduction
  serum creatinine: reduction
[1]; [10]
  BUN (kidney function): Normalized kidney function
  kidney to body weight ratio: Reduced cyst growth
[2]; 0.5 mg/kg at P10
  disease at P16: significantly improved disease
[2]; 1 dose 0.5 mg/kg i.p. at P10, assessed at P16, p<0.001
  KW/BW ratio: dramatic improvement
[2]; 1 dose 0.5 mg/kg i.p. at P10, assessed at P16, p<0.05
  BUN: dramatic improvement
[2]; FIG. 6
  cystic phenotype (morphological and functional parameters): dramatic improvement
[2]; [11]
  BUN (marker of kidney function): dramatic decrease
  KW/BW ratio: dramatic decrease
[3]
  cystic cell viability: inhibits
[4]
  impact on nucleotide incorporation: without any impact
[5]
  systemic side effects: no apparent systemic side effects
[6]; [12]
  BUN: almost a complete rescue; also recorded: dramatic improvement
  KW/BW ratio: almost a complete rescue; also recorded: dramatic improvement
[6]; 0.5 mg/kg, 1×/2 wks between 6-18 weeks of age
  cyst growth: prevents
[6]; 0.5 mg/kg, 1×/2 wks, listed as Ire1α inhibitor
  apoptosis of cyst lining epithelia (TUNEL): causes apoptosis
[6]; once every 2 weeks starting at 6 weeks of age, vs vehicle treated animals
  disease progression: almost complete inhibition
[6]; preliminary analysis, data not shown
  effect in cells where Cre is not expressed (selectivity): restricted to Pkd1 null segments
[6]; treated between week 12 to 18, proximal tubules marked by LTA
  apoptosis in kidneys (TUNEL): specific TUNEL-positive signal in cyst lining cells
[6]; treated vs. untreated mice, target engagement
  levels of spliced XBP1 (qPCR): lower; also recorded: decreased expression
[6]; treatment from 6 weeks until 18 weeks age, FIG. 7
  cystic phenotype (morphological and functional parameters): dramatic improvement
[6]; untreated vs. treated animals, once every 2 weeks, week 6 to 18
  body weight: did not differ
[7]; Ri, et al., 2012
  inhibition of IRE1α endoribonuclease activity: potent inhibitor
[7]; in vitro, read-out: IC50, inhibition of Ire1α endoribonuclease activity
  pIC50: ~7.00
[8]
  inhibition of IRE1α kinase activity: does not inhibit
[9]; 0.5 mg/kg IP, 1×/week, from 13 wks until 18 wks
  liver toxicity: does not cause liver toxicity
[9]; 0.5 mg/kg every 2 weeks between 12 and 18, FIGS. 31A-31B
  KW/BW ratio: decrease
[9]; 0.5 mg/kg i.p. once every 2 weeks, week 6 until week 18, vs untreated mice
  KW/BW ratio: significant decrease
[9]; treatment from 6 to 18 weeks, started immediately after gene inactivation
  disease progression: improves
